Experimental data as given in patent EP2070923A1, “Insecticide iminoheterocycles” (priority 2007, dated 2009).

Legend:
[1] = tested on: Boophilus microplus; test: Boophilus microplus test (injection); format: in vivo; conditions: 20 µg/Tier; injection into abdomen; 100 % = no tick laid fertile eggs
Description: Boophilus microplus -Test (Injektion)
Zur Herstellung einer zweckmäßigen Wirkstoffzubereitung vermischt man 1 Gewichtsteil Wirkstoff mit der angegebenen Menge Lösungsmittel und verdünnt das Konzentrat mit Lösungsmittel auf die gewünschte Konzentration. Die Wirkstofflösung wird in das Abdomen (Boophilus microplus) injiziert, die Tiere werden in Schalen überführt und in einem klimatisierten Raum aufbewahrt. Nach der gewünschten Zeit wird die Wirkung in % bestimmt. Dabei bedeutet 100%, dass keine Zecke fertile Eier gelegt hat. Bei diesem Test zeigen z. B. die folgenden Verbindungen der Herstellungsbeispiele eine Wirkung von = 80 % bei einer Aufwandmenge von 20 µg/Tier: • Bsp. Nr. 43, 44, 45, 46, 63, 64, 65, 66

[2] = logP (HCOOH); conditions: hplc, formic acid
[3] = tested on: Lucilia cuprina Larven; test: Lucilia cuprina test (treated horse meat, larvae); format: in vivo; conditions: 100 % = all larvae killed, read-out: Abtötung
Description: Zur Herstellung einer zweckmäßigen Wirkstoffzubereitung vermischt man 1 Gewichtsteil Wirkstoff mit der angegebenen Menge Wasser und verdünnt das Konzentrat mit Wasser auf die gewünschte Konzentration. Gefäße, die Pferdefleisch enthalten, das mit der Wirkstoffzubereitung der gewünschten Konzentration behandelt wurde, werden mit Lucilia cuprina Larven besetzt. Nach der gewünschten Zeit wird die Abtötung in % bestimmt. Dabei bedeutet 100 %, dass alle Larven abgetötet wurden; 0 % bedeutet, dass keine Larven abgetötet wurden. Bei diesem Test zeigen z. B. die folgenden Verbindungen der Herstellungsbeispiele eine Wirkung von ≥ 80 % bei einer Aufwandmenge von 100 ppm: • Bsp. Nr. 65

[4] = tested on: Myzus persicae; test: Myzus test (spray treatment); format: in vivo; conditions: foliar, 500 g/ha, spray on Brassica pekinensis leaf discs, 100 % = all aphids killed, read-out: Wirkung
Description: Myzus-Test (Spritzbehandlung)
Zur Herstellung einer zweckmäßigen Wirkstoffzubereitung vermischt man 1 Gewichtsteil Wirkstoff mit den angegebenen Mengen Lösungsmittel und Emulgator und verdünnt das Konzentrat mit emulgatorhaltigem Wasser auf die gewünschte Konzentration. Chinakohlblattscheiben (Brassica pekinensis), die von allen Stadien der Grünen Pfirsichblattlaus (Myzus persicae) befallen sind, werden mit einer Wirkstoffzubereitung der gewünschten Konzentration gespritzt. Nach der gewünschten Zeit wird die Wirkung in % bestimmt. Dabei bedeutet 100 %, dass alle Blattläuse abgetötet wurden; 0 % bedeutet, dass keine Blattläuse abgetötet wurden. Bei diesem Test zeigen z. B. die folgenden Verbindungen der Herstellungsbeispiele eine Wirkung von ≥ 80 % bei einer Aufwandmenge von 500 g/ha: • Bsp. Nr. 2, 3, 31, 32, 33, 36, 37, 39, 40, 41, 42, 43, 44, 45, 46, 63, 64, 65, 66, 86, 87, 88, 90, 95, 96, 97, 99, 103

Compound: COCCNC(=S)N1CCOC1=N[C@@H](C)c1cccs1 [Beispiel 65]
- Wirkung [1]: 80%
- chromatographic logP [2]: 3.38
- mortality at 100 ppm [3]: ≥ 80%
- mortality at 500 g/ha [4]: ≥ 80%
